SMILES strings stand for the structures.

By IC50 is commonly meant the concentration that inhibits the measured activity by half. Low values mean greater potency, high ones weaker potency.

In the test the target is T1, hSGLT1 (Homo sapiens, UniProt P13866).
T1 construct: gene SLC5A1; hSGLT1GFP-MAP17nb: GFP fused between Q581 and E582 of hSGLT1; anti-GFP nanobody fused after E57 of MAP17 (1-57); in nanodisc; with MAP17
T1 sequence (P13866 1-581): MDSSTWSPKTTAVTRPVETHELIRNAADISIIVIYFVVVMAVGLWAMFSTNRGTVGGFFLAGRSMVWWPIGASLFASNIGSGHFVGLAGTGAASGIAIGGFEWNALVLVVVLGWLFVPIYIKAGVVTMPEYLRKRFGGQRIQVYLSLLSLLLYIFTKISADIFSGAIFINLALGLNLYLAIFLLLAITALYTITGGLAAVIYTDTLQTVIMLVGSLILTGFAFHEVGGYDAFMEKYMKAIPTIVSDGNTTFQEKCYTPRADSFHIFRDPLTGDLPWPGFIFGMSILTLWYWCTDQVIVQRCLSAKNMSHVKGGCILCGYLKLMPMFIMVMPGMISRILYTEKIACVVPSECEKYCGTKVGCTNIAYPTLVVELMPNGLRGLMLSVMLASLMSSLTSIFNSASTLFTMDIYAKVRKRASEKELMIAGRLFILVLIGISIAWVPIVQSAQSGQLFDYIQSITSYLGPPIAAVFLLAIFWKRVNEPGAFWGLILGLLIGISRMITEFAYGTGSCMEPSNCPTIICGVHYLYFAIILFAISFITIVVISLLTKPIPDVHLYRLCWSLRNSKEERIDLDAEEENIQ
T1 sequence (P13866 582-664): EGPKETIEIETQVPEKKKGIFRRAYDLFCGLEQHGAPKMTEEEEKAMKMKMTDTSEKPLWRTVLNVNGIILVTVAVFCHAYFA
T1 sequence (Q13113 1-57 partner): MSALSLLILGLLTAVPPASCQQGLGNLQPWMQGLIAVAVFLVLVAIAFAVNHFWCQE
Put plainly: cryo-EM structure at […] Å; 1-NBD-glucose uptake inhibition in cells (IC50 […] for this construct, […] for non-tagged hSGLT1). The class given is cell-based.

In turn, `CS[C@H]1O[C@@H](c2ccc(C)c(Cc3ccc(CCCC(=O)NC(C)(C)C(=O)NCCN(C)C)cc3)c2)[C@H](O)[C@@H](O)[C@@H]1O` [LX2761] had a 50% inhibitory concentration (IC50) of 2.3 nM.

(Values after article PMC9616851, “Structural mechanism of SGLT1 inhibitors” (Nature Communications, 2022).)
